The results in this text go back to US20250312321A1, “TRANSIENT SIROLIMUS WITH FASL MICROGELS” (iTOLERANCE, Inc., priority 2022, published 2025).

Details of the data set: species or system non-human primates (Cyno). Conditions: cynomolgus monkey, in vivo. As to the method:
Biotinylated PEG microgels (150 μm diameter) were synthesized by microfluidic cross-linking and functionalized with SA-FasL as previously described (Headon, D M, et al., Nat. Mater. 17:732-739 (2018)). Four diabetic non-human primates (NHP) (FIG. 1B; Tables 1 and 2) underwent transplantation of allogeneic islets (14,800 to 18,700 islet equivalents (IEQ)/kg) mixed with SA-FasL-presenting microgels (150,000 to 200,000 microgels delivering 0.2 mg of SA-FasL) on the omental surface. […]
At selected time points, intravenous glucose tolerance tests (IVGTT) were performed to assess glucose disposal kinetics and insulin and C-peptide levels. […] Consistent with these metrics of graft function, background levels of insulin and C-peptide were measured in the serum of SA-FasL microgel NHPs after STZ administration but before islet transplant and equivalently low levels were evident post-graft removal (insulin: pre-STZ vs. post-STZ, P<0.0001; post-STZ vs. post-graft removal (PGR), P=0.9998; C-peptide: pre-STZ vs. post-STZ, P=0.0060; post-STZ vs. post-graft removal, P=0.4032) (FIG. 2D). […] SA-FasL protein was detected in the serum of all NHPs as early as 1-day after transplantation ranging from 4-56 ng/mL and decreasing to background levels by days 7-14.

For the compound `CO[C@H]1C[C@@H]2CC[C@@H](C)[C@@](O)(O2)C(=O)C(=O)N2CCCC[C@H]2C(=O)O[C@H]([C@H](C)C[C@@H]2CC[C@@H](O)[C@H](OC)C2)CC(=O)[C@H](C)/C=C(\C)[C@@H](O)[C@@H](OC)C(=O)[C@H](C)C[C@H](C)/C=C/C=C/C=C/1C` [Sirolimus], the “Time after discontinuation at which sirolimus levels became undetectable” value is on record as 2 weeks.
